From patent US11998566B1, “Method of synthesizing a silver nanoparticle composition using an extract of Salsola tetrandra” (KING FAISAL UNIVERSITY, priority 2023, dated 2024) come the findings set out here.

Experiment [1] has as its system A. fumigatus. Kind of experiment: light microscopy of mycelial growth / germination. It counts as cell-based, Aspergillus fumigatus. Particulars: FIG. 2C. The method, then:
FIGS. 2A-2C show differences in the mycelial growth of A. fumigatus in 2A) control 2B) following exposure to ST-AgNPs and 2C) following exposure to amphotericin B. (conventional antifungal agent).
(§1) Several preliminary in vitro experiments were performed to confirm the potent antifungal potential of the green biosynthesized silver nanoparticles (ST-AgNPs) against A. fumigatus. […] Additionally, the inhibitory effect of the antifungals AMB and ST-AgNPs was also examined using light microscopy (FIGS. 2A-2C).

Experiment [2] deals with A. fumigatus. The experiment in a line: time kill assay. It is filed as cell-based, Aspergillus fumigatus. The settings on record: 50 μg/mL; exposure for 24 hours; FIG. 1. The method, then: FIG. 1 is a graph showing time-kill curves of A. fumigatus following exposure to ST-AgNPs and amphotericin B for 24 hours (values are expressed as means±SD)
as §1

Structures are written as SMILES.

Consider `C[C@@H]1[C@H](O)[C@@H](C)/C=C/C=C/C=C/C=C/C=C/C=C/C=C/[C@H](O[C@@H]2O[C@H](C)[C@@H](O)[C@H](N)[C@@H]2O)C[C@@H]2O[C@](O)(C[C@@H](O)C[C@@H](O)[C@H](O)CC[C@@H](O)C[C@@H](O)CC(=O)O[C@H]1C)C[C@H](O)[C@H]2C(=O)O` [amphotericin B], for which the mycelial growth result in experiment [1] is recorded as “substantially reduced”. For the same molecule, in experiment [2], the “action on the growth of Aspergillus cells (time kill assay)” value is “fungistatic action”.
